From ChEMBL document CHEMBL1151488, “Synthesis and biological activity of J-104,118, a novel, potent inhibitor of squalene synthase” (Bioorg Med Chem Lett, 1995)
pIC50: −log10 of the molar value.

Legend:
[1] = molecular target: T1, Squalene synthase (Homo sapiens, UniProt P37268); test: Inhibitory activity against HepG2 Squalene Synthase (SQS)
T1 sequence (P37268 whole entry): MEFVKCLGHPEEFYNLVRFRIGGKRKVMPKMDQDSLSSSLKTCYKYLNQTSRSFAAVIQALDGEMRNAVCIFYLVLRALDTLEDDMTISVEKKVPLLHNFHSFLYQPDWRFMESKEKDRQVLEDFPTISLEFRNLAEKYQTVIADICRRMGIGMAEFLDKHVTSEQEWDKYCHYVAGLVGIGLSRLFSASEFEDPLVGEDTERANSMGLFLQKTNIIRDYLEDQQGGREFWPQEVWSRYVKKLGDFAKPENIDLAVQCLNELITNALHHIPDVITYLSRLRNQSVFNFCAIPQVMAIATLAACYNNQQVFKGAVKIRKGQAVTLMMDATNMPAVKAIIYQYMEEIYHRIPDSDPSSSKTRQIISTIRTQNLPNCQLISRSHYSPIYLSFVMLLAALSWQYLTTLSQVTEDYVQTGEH

[2] = system: Mus musculus; test: Inhibition of cholesterol synthesis from [14C]acetate expressed as percent reduction in radioactivity in mice after oral administration of 3 mg/kg; format: functional
[3] = system: Mus musculus; test: Tested for inhibition of cholesterol synthesis by compound after oral administration at 10 mg/kg in mice; format: functional
[4] = Inhibition of cholesterol synthesis by compound after oral administration at of 10-100 mg/kg/day in marmoset; format: functional

Structure (SMILES)	pIC50 [1]	other results
CC(NC(=O)CC(CC(=O)O)C(=O)O)C(Cc1ccc(Cl)cc1)c1ccc(Cl)cc1 (configuration not stated)	6.18	
C[C@@H](NC(=O)CC(CC(=O)O)C(=O)O)[C@H](Cc1ccc(Cl)c(Cl)c1)c1ccc(-c2ccccc2)c(F)c1 (some centres not stated)	< 6.52	
C=C(CCC12OC(C(=O)O)C(O)(C(=O)O)C(C(=O)O)(O1)[C@H](OC(=O)/C=C/[C@@H](C)C[C@@H](C)CC)[C@H]2O)[C@@H](OC(C)=O)[C@H](C)Cc1ccccc1 (some centres not stated) [ZARAGOZIC ACID A]		inhibition in vivo at 10 mg/kg [3]: 38%; Reduction [4]: 75%
C[C@H](NC(=O)CC(CC(=O)O)C(=O)O)[C@@H](Cc1ccc(Cl)c(Cl)c1)c1ccc(-c2ccccc2)c(F)c1 (some centres not stated)	< 6.52	

More lines, in order of rising pIC50 [1], values ahead:

pIC50 [1]	Structure (SMILES)	other results
7.72	C[C@@H](NC(=O)C[C@H](CC(=O)O)C(=O)O)[C@@H](Cc1ccc(Cl)c(Cl)c1)c1ccc(-c2ccccc2)c(F)c1	
7.80	C[C@@H](NC(=O)C[C@H](CC(=O)O)C(=O)O)[C@H](Cc1ccc(Cl)c(Cl)c1)c1ccc(-c2ccccc2)c(F)c1	
8.49	C[C@H](NC(=O)C[C@@H](CC(=O)O)C(=O)O)[C@@H](Cc1ccc(Cl)cc1)c1ccc(-c2ccccc2)cc1	
8.92	C[C@H](NC(=O)C[C@@H](CC(=O)O)C(=O)O)[C@@H](Cc1ccc(Cl)c(Cl)c1)c1ccc(-c2ccccc2)cc1	
9.14	C[C@H](NC(=O)CC(CC(=O)O)C(=O)O)[C@@H](Cc1ccc(Cl)c(Cl)c1)c1ccc(-c2ccccc2)c(F)c1 (single isomer, unassigned)	
9.28	C[C@H](NC(=O)C[C@@H](CC(=O)O)C(=O)O)[C@@H](Cc1ccc(Cl)c(Cl)c1)c1ccc(-c2ccccc2)c(F)c1	Reduction [2]: 84%
